How the values were obtained:
Type in all cases: in vivo, rat
male Wistar strain rats [1] = assay: Influence on serum cholesterol and arteriosclerosis index; conditions: 0.1 mmol per kg feed, four weeks, * p<0.05
Procedure: (§1) Twenty-four nine-week old male Wistar strain rats were used and divided into four groups each comprising six rats, including a control group, a 0.1 mmol/kg capsaicin group, a 0.1 mmol/kg capsinoid group, and a 1.0 mmol/kg capsinoid group. A 20% lard food to which 1% cholesterol was added was administered as a feed to the control group. For the remaining three groups, capsaicin of 0.1 mmol per kg final concentration of the feed, capsinoid of 0.1 mmol per kg final concentration of the feed, and capsinoid of 1.0 mmol per kg final concentration of the feed, respectively, were added to the feed, similar to the control group. The capsinoid was a mixture of 4-hydroxy-3-methoxybenzyl (E)-8-methyl-6-nonenoate and 4-hydroxy-3-methoxybenzyl 8-methylnonanoate in about 2:1 ratio.
(§2) The above groups each comprising six rats were subjected to pair feeding for four weeks. Breeding of the experimental animals was conducted in each individual cage and, during the breeding period, body weight was measured once a week and ingested amount of the feed was calculated by deducting the residue from the administered amount. Feces were collected for three days before dissection. After completion of breeding, the rats were sacrificed and dissected. Blood was collected. The liver, the fat around the kidney, and the fat around the epididymis were each separately excised and weighed. Furthermore, the ratio of the excised organs to the total body weight was calculated. Unless otherwise mentioned, the results in the following tables are shown in terms of mean value±standard deviation and, statistically, test of significance was conducted at p<0.05 by ANOVA and Duncan's multiple range test. In the tables, * means p<0.05.
Blood was collected from the experimental animals bred as above and total cholesterol (T-chol) and HDL cholesterol (HDL-chol) in the serum was measured. More specifically, total cholesterol and HDL cholesterol were measured according to a method disclosed in “Akiko Tsujihara and Yumiko Tani: Influence of yucca saponin and pure konjak powder on lipid metabolism of rats fed with a high-fat and high-cholesterol feed: Eiyo Shokuryo Gakkaishi, vol. 51, pp. 157-163 (1998)”. The Arteriosclerosis index was calculated by (T-chol-HDL-chol)/(HDL-chol). The results are shown in Table 4, including the amount of triglyceride in the serum (TG).

male Wistar strain rats [2] = assay: Weight of liver, fat around kidney and fat around epididymis, and ratio to total body weight; conditions: 0.1 mmol per kg feed, four weeks
Procedure: as §1, §2

male Wistar strain rats [3] = assay: Excretion of cholesterol into feces during three days before dissection; conditions: 0.1 mmol per kg feed, mean ± SD
Procedure: as §1
The above groups each comprising six rats were subjected to pair feeding for four weeks. Breeding of the experimental animals was conducted in each individual cage and, during the breeding period, body weight was measured once a week and ingested amount of the feed was calculated by deducting the residue from the administered amount. Feces were collected for three days before dissection. After completion of breeding, the rats were sacrificed and dissected. Blood was collected. […] Furthermore, the ratio of the excised organs to the total body weight was calculated. […]

[4] = Breeding process: body weight and ingested amount of feed in rats on 20% lard food with 1% cholesterol; conditions: 0.1 mmol per kg feed, mean ± SD
Procedure: as §1, §2

Which “Arteriosclerosis Index” value (male Wistar strain rats [1]; (T-chol-HDL-chol)/(HDL-chol)) does the source give for `COc1cc(CNC(=O)CCCC/C=C/C(C)C)ccc1O` [Capsaicin, capsaicin] here?
The value was 1.2 ± 0.4.

What about the “HDL-chol (HDL cholesterol in serum)” value (male Wistar strain rats [1]; serum, mean ± SD) of the same compound?
The value was 34.2 ± 6.5* mg/dl.

And the “T-chol (total cholesterol in serum)” value (male Wistar strain rats [1]; serum, mean ± SD)?
The value was 71.2 ± 8.1* mg/dl.

What about the “TG (triglyceride in the serum)” value (male Wistar strain rats [1]; serum, mean ± SD) of the same compound?
Its value is 25.5 ± 5.3* mg/dl.

And the “Fat (g) around Epididymis” value (male Wistar strain rats [2]; mean ± SD)?
Its value is 4.6 ± 0.5 g.

And the “Fat (g) around Kidney” value (male Wistar strain rats [2]; mean ± SD)?
Its value is 3.8 ± 0.6 g.

What about the “Liver” value (male Wistar strain rats [2]; mean ± SD) of the same compound?
The value was 14.4 ± 0.9 g.

What about the “Fat (%) around Epididymis” value (male Wistar strain rats [2]; ratio to total body weight) of the same compound?
The value was 1.3 ± 0.1%.

And the “Fat (%) around Kidney” value (male Wistar strain rats [2]; ratio to total body weight)?
The value was 1.0 ± 0.1%.

What about the “Liver (%)” value (male Wistar strain rats [2]; ratio to total body weight, * p<0.05) of the same compound?
The value was 3.9 ± 0.1* %.

And the “Cholesterol in Feces, Excreted Amount” value (male Wistar strain rats [3])?
Its value is 240 ± 27 mg/3 days.

And the “Cholesterol in Feces, Excreted Rate” value (male Wistar strain rats [3])?
Its value is 48.6 ± 3.4%.

What about the “Body Weight (g) on Dissected Day” value ([4]; four weeks) of the same compound?
Its value is 367 ± 12 g.

What about the “Percentage Increase in Body Weight” value ([4]; four weeks) of the same compound?
Its value is 133 ± 4%.

What about the “Body Weight (g) on Final Day of Breeding” value ([4]; pair feeding four weeks) of the same compound?
The value was 392 ± 11 g.
